Laboratory results as given in US12338263B2, “Antibacterial aminoglycoside derivatives” (priority 2019, dated 2025).
≈ marks a conversion by molar mass, not a printed value.

What was measured:
E. coli ATCC BAA-2523 = test: Antibacterial effect (MIC), micro-liquid dilution method (CLSI); type: cell-based; settings: Escherichia coli, ATCCBAA2523
Method: (§1) Three strains Enterobacteriaceae E. coli ATCC 25922, E. coli ATCC BAA-2523, K. pneumonia ATCC BAA-1705 were used to determine the Minimum Inhibitory Concentration (MIC) of each compound by the micro-liquid dilution method according to the requirements of the Institute of Clinical and Laboratory Standard (CLSI). 2-fold series diluted compounds (with a final concentration range […]) were added to a round bottom 96-well plate (Catalog #3788, Corning). A single clone of fresh bacteria on the plate of Mueller Hinton II Agar (MHA, Cat. No. 211438, BD BBL™) after overnight culture was picked and suspended in sterile saline to adjust the concentration to 1×10^8 CFU/mL, and then diluted to 5×10^5 CFU/mL by Cation-Adjusted Mueller Hinton II Broth (MHB, Catalog #212332, BD BBL™), 100 μL of which was added to the round bottom 96-well plate containing the drug. The plate was inverted and incubated at 37° C. for 20-24 hours, and the MIC value was read. The lowest drug concentration that inhibits bacterial growth was defined as MIC.

[1] = tested on: K. pneumoniae ATCC BAA-1705; test: as above; type: cell-based; settings: Klebsiella pneumoniae, ATCCBAA1705
Method: as §1

E. coli ATCC 25922 = test: as above; type: cell-based; settings: Escherichia coli, ATCC25922
Method: as §1

spiral ganglion neurons = test: Auditory safety: density of spiral ganglion neurons; type: in vivo, guinea pigs; settings: guinea pig, in vivo, sc, 100 mg/kg
Method: (§2) Healthy adult guinea pigs (150-250 g) were employed as the research objects, and were randomly divided into saline control group, gentamicin group, compound Plazomicin group and Compound 1 group, with 8 animals in each group. Subcutaneous administration is used, and the following assays were carried out during and after the administration for 14 consecutive days: • 1. To analyze the effects of different drugs on the auditory function of guinea pigs, the compound action potential (CAP) of animals was recorded on the 14th day (29th day, i.e., 4 weeks) after administration. The results obtained were analyzed and the changes of the threshold shift, amplitude, latency and other indicators among different treatment groups were compared. • 2. After the different groups of animals were processed and the auditory function data thereof were collected, the cochlea of the animals was taken out for fixation and staining. Surface preparation of basilar membrane of the cochlea on one side was performed to count the loss of hair cells so as to make a cochlea map, and the cochlea on the other side was decalcified and frozen sectioned. The density of spiral ganglion neurons was counted and compared among groups. Research Results: 1. Administration Method and Treatment
(§3) Gentamicin from Dalian Meilun Biotechnology Co., Ltd., and Plazomicin and Compound 1 from WuXi AppTec (WuHan) Co., Ltd. are used, the solution of which were prepared just before use each time by using saline for dissolution to the concentration of 50 mg/mL, and the injection dose was 100 mg/kg body weight. Method: subcutaneous injection, and confirmation of no liquid leakage after each injection.
The cochlea of the guinea pig was defined as Turn 1, Turn 2, Turn 3, and Turn 4 from the basal to the apical turn. The spiral ganglion neurons (SGNs) were stained with TuJ on frozen sections, and the density thereof in a specific area were counted and compared between groups. […] Through the two-way ANOVA, there was a significant difference between the groups, F(3, 74)=35.43, p<0.0001 (see FIG. 7).

[2] = tested on: E. coli ATCC-25922 (Enterobacteria ATCC-25922); test: Drug efficacy in mice (mouse thigh muscle model); type: in vivo; settings: CD-1 mice, 30 mpk subcutaneously 2 h and 10 h after infection, read at 24 h; FIG. 1
Method: 12 female CD-1 mice were divided into 4 cages, 3 mice per cage, and were injected intraperitoneally with the immunosuppressant cyclophosphamide (150 mpk).
24 hours later, 4 cages of mice were injected intraperitoneally again with the immunosuppressant cyclophosphamide (100 mpk). The strain E. coli ATCC-25922 (Enterobacteria ATCC-25922) was recovered on a MHA plate. The recovered colonies were picked and dissolved in saline to prepare E. coli ATCC-25922 bacterial solution with a concentration of 1.00E+07 CFU/mL for later use in mouse thigh muscle infection. The amount of bacterial solution injected into the thigh muscle of experimental mice was […], that is, the inoculation amount was 1.00E+06 CFU/mouse. […]
The specific administration of mice was as follows: • (1) 2 h after infection: At the end of 2 h infection, the thigh muscle tissue of the mice in the first cage was taken and placed in 10 mL saline, homogenized, and dotted on a plate with gradient dilution, two duplications for each mouse. The amount of bacteria loaded in the thigh muscle tissue of the mouse was counted. […] The amount of bacteria loaded in the thigh muscle tissue of the mouse was counted, and the experimental results were summarized and shown in FIG. 1.

cochlear hair cells = test: Auditory safety: hair cell staining and counting on the basilar membrane of the cochlea; type: in vivo, guinea pigs
Method: as §2, §3
In order to compare the effects of different drugs on hair cells, hair cell staining and counting on the whole basilar membrane of the cochlea are performed. […] The Plazomicin group had 11.2-28.1% loss of outer hair cells in the high frequency (70-100% from the apical turn) and 16.7-24.2% loss of the outer hair cells at the beginning of the apical turn (10-20%). However, in the Compound 1 group, the loss of outer hair cells only occurred in the low-frequency region (from the top turn −40%), in which the loss rate of outer hair cells was about 2.5-11%, and the outer hair cells were relatively intact in the high frequency area (see FIG. 6 B).

[3] = Evaluation of pharmacokinetics in rats; type: in vivo; settings: rat, plasma, male SD rats, 150 mg/kg single intravenous drop infusion for 30 minutes
Method: • 1) Experimental drug: Compound 1; • 2) Experimental animals: 3 male SD rats aged 7-9 weeks; • 3) Drug preparation: An appropriate amount of the drug was weighed and dissolved in saline to forma 60 mg/mL solution. Experimental Operation:
Animals were administered the drug at a dose of 150 mg/kg and a concentration of 60 mg/mL by a single intravenous drop infusion via the tail vein for 30 minutes. Plasma samples were collected from the animals at 0, 0.0333, 0.0833, 0.25, 0.5, 1, 2, 4, 6, 8 and 24 hours after administration. The LC-MS/MS method was used to determine the drug concentration in the plasma sample, and the kinetic parameters of the tested drug are shown in Table 2: […]

CN[C@@H]1[C@@H](O)[C@@H](O[C@@H]2[C@@H](O)[C@H](O[C@H]3OC(CNCCOCCONC(=N)N)=CC[C@H]3N)[C@@H](N)C[C@H]2NC(=O)[C@@H](O)CCN)OC[C@]1(C)O [Compound 1]
MIC (E. coli ATCC BAA-2523): 2 µM (≈ 1.39 µg/mL) | MIC [1]: 4 µM (≈ 2.78 µg/mL) | MIC (E. coli ATCC 25922): 2 µM (≈ 1.39 µg/mL) | damage to spiral ganglion neurons (SGN density vs Control group) (spiral ganglion neurons): no damage to spiral ganglion neurons | in vivo efficacy (bacteria loaded in thigh muscle tissue), compared with Plazomicin [2]: better in vivo efficacy than Plazomicin | loss rate of outer hair cells (cochlear hair cells; guinea pig, in vivo, 29 day): 2.5-11% | damage to inner hair cells (overall) (cochlear hair cells; guinea pig, in vivo, sc, 100 mg/kg): almost undamaged | hair cell toxicity (overall) (cochlear hair cells; guinea pigs, 100 mg/kg subcutaneous 14 days): significantly lower than that of the Gentamicin and the Plazomicin | AUC ([3]; read-out: Area Under the Curve AUC): 440 µM·h | clearance ([3]; read-out: Clearance Rate Cl): 9.48 mL/min/kg | half-life ([3]; read-out: Half-Life T1/2 (converted)): 3.62 h | Cmax ([3]; read-out: Maximum Concentration Cmax): 316 µM | Vd ([3]; read-out: Volume of Distribution Vd): 1.5 L/kg
